In general, IC50 refers to the midpoint of a concentration-inhibition curve.

Structures are written as SMILES. Bounds are passed on as bounds.

In the assay the target is Autotaxin (Homo sapiens (Human), UniProt Q13822). Put plainly: Autotaxin LPC Cascade Assay. It is filed as biochemical. The following applies: Autotaxin 5 nM, LPC 100 μM, choline oxidase/HRP/Ampliflu Red fluorescence read-out, 2% DMSO, RT; read-out: IC50 ATX Activity. Here is the method: Autotaxin LPC Cascade Assay:
HA130 and Test Compounds:
Prepare a 1 mM stock of HA130 and a 3 mM stock of each compound in 100% DMSO. Perform a 1:3 serial dilution in DMSO (transfer 5 l of compound to 10 l of DMSO). Add 240 l of buffer to generate a top working concentration of 40 µM (HA130) and 120 µM (test compound) in 4% DMSO.
Ampliflu Red—Prepare a stock of 5 mM from 100 mM in 100% DMSO. Further dilute to a working concentration of 400 μM in buffer (8% DMSO).
Together with compound this yields a 2% DMSO final concentration.
Choline Oxidase/HRP—0.8 U/mL CO and 8 U/mL HRP.
Incubate for 10 mins at RT. Add 5 µl of LPC and incubate for 1 hr on the plate shaker. Prepare the CO/HRP and AR immediately prior to use. Add 2.5 l of CO/HRP and follow with 2.5 l AR. Note order of addition, CO/HRP mix before AR. Read fluorescence intensity (ex/em: 530/590 nm) kinetically for 30 min at RT on the Tecan M1000.
`CC(C)[C@@H](NC(=O)c1cc(C(F)(F)F)ccc1F)C(=O)N1CCC2(CC1)C(=O)N(C)CN2c1ccc(C(N)=O)cc1` [Example 157, (R)—N-(1-(1-(4-Carbamoylphenyl)-3-methyl-4-oxo-1,3,8-triazaspiro[4.5]decan-8-yl)-3-methyl-1-oxobutan-2-yl)-2-fluoro-5-(trifluoromethyl)benzamide]: the IC50 was less than 500 nM. As to `CC(C)[C@@H](NC(=O)c1cc(C(F)(F)F)ccc1F)C(=O)N1CCC2(CC1)C(=O)N(C)C(=O)N2c1ccc2[nH]nnc2c1` [Example 32, (R)—N-(1-(1-(1H-Benzo[d][1,2,3]triazol-5-yl)-3-methyl-2,4-dioxo-1,3,8-triazaspiro [4.5]decan-8-yl)-3-methyl-1-oxobutan-2-yl)-2-fluoro-5-(trifluoromethyl)benzamide], the IC50 is less than 500 nM. The result for `Cc1cccc(C(=O)N[C@@H](C(=O)N2CCC3(CC2)C(=O)N(C)CN3c2ccc(B(O)O)cc2)C(C)C)c1F` [Example 147, (R)-4-(8-(2-(2-Fluoro-3-methylbenzamido)-3-methylbutanoyl)-3-methyl-4-oxo-1,3,8-triazaspiro[4.5]decan-1-yl)phenylboronic Acid] reads less than 500 nM; that for `CC(C)[C@@H](NC(=O)c1ccccn1)C(=O)N1CCC2(CC1)C(=O)N(C)C(=O)N2c1ccc2[nH]ncc2c1` [Example 228, (R)—N-(1-(1-(1H-Indazol-5-yl)-3-methyl-2,4-dioxo-1,3,8-triazaspiro[4.5]decan-8-yl)-3-methyl-1-oxobutan-2-yl)picolinamide], no less than 1000 nM; that for `CC(C)[C@@H](NC(=O)c1cc(C(F)(F)F)ccc1F)C(=O)N1CCC2(CC1)C(=O)N(C)C(=O)N2c1ccc2occc2c1` [Example 27, (R)-2-Fluoro-N-(3-methyl-1-(3-methyl-2,4-dioxo-1-(5-benzofuran)-1,3,8-triazaspiro[4.5]decan-8-yl)-1-oxobutan-2-yl)-5-(trifluoromethyl)benzamide], less than 500 nM. The result for `CN1C(=O)N(c2ccc3[nH]ncc3c2)C2(CCN(C(=O)C(C)(C)NC(=O)c3cc(C(F)(F)F)ccc3F)CC2)C1=O` [Example 74, N-(1-(1-(1H-Indazol-5-yl)-3-methyl-2,4-dioxo-1,3,8-triazaspiro[4.5]decan-8-yl)-2-methyl-1-oxopropan-2-yl)-2-fluoro-5-(trifluoromethyl)benzamide] reads no less than 1000 nM; that for `CC(C)[C@@H](NC(=O)c1cc(C(F)(F)F)ccc1F)C(=O)N1CCC2(CC1)C(=O)N(C)C(=O)N2c1ccc2c(c1)OCO2` [Example 191, (R)—N-(1-(1-(Benzo[d][1,3]dioxol-5-yl)-3-methyl-2,4-dioxo-1,3,8-triazaspiro[4.5]decan-8-yl)-3-methyl-1-oxobutan-2-yl)-2-fluoro-5-(trifluoromethyl)benzamide], less than 500 nM; that for `CC(C)[C@@H](NC(=O)c1cc(F)ccc1F)C(=O)N1CCC2(CC1)C(=O)N(C)C(=O)N2c1ccc2[nH]ncc2c1` [Example 66, (R)—N-(1-(1-(1H-Indazol-5-yl)-3-methyl-2,4-dioxo-1,3,8-triazaspiro[4.5]decan-8-yl)-3-methyl-1-oxobutan-2-yl)-2,5-difluorobenzamide], 500 to 1000 nM. The result for `CC(C)[C@@H](NC(=O)c1cc(C(F)(F)F)ccc1F)C(=O)N1CCC2(CC1)C(=O)N(C)CN2c1ccc(C(=O)O)c(Cl)c1` [Example 154, (R)-2-Chloro-4-(8-(2-(2-fluoro-5-(trifluoromethyl)benzamido)-3-methylbutanoyl)-3-methyl-4-oxo-1,3,8-triazaspiro[4.5]decan-1-yl)benzoic Acid] reads less than 500 nM; that for `CC(C)[C@@H](NC(=O)c1ccncc1)C(=O)N1CCC2(CC1)C(=O)N(C)C(=O)N2c1ccc2[nH]ncc2c1` [Example 231, (R)—N-(1-(1-(1H-Indazol-5-yl)-3-methyl-2,4-dioxo-1,3,8-triazaspiro[4.5]decan-8-yl)-3-methyl-1-oxobutan-2-yl)isonicotinamide], no less than 1000 nM; that for `CC(C)[C@@H](NC(=O)c1cc(C(F)(F)F)ccc1F)C(=O)N1CCC2(CC1)C(=O)N(C)C(=O)N2c1cnn(C)c1` [Example 17, (R)-2-Fluoro-N-(3-methyl-1-(3-methyl-1-(1-methyl-1H-pyrazol-4-yl)-2,4-dioxo-1,3,8-triazaspiro[4.5]decan-8-yl)-1-oxobutan-2-yl)-5-(trifluoromethyl)benzamide], no less than 1000 nM. Take `CC(C)[C@@H](NC(=O)c1cc(C(F)(F)F)ccc1F)C(=O)N1CCC2(CC1)C(=O)N(C)C(=O)N2Cc1ccc2c(c1)OCCO2` [Example 96, (R)—N-(1-(1-((2,3-Dihydrobenzo[b][1,4]dioxin-6-yl)methyl)-3-methyl-2,4-dioxo-1,3,8-triazaspiro[4.5]decan-8-yl)-3-methyl-1-oxobutan-2-yl)-2-fluoro-5-(trifluoromethyl)benzamide]: the IC50 is less than 500 nM. `CCc1ccc(F)c(C(=O)N[C@@H](C(=O)N2CCC3(CC2)C(=O)N(C)CN3c2ccc(OCC(=O)O)cc2)C(C)C)c1` [Example 168, (R)-2-(4-(8-(2-(5-Ethyl-2-fluorobenzamido)-3-methylbutanoyl)-3-methyl-4-oxo-1,3,8-triazaspiro[4.5]decan-1-yl)phenoxy)acetic Acid]: the IC50 was less than 500 nM. The result for `CC(C)[C@@H](NC(=O)c1cc(C(F)(F)F)ccc1F)C(=O)N1CCC2(CC1)C(=O)N(C)C(=O)N2[C@@H](C)c1ccccc1` [Example 78, 2-Fluoro-N—((R)-3-methyl-1-(3-methyl-2,4-dioxo-1-((S)-1-phenylethyl)-1,3,8-triazaspiro[4.5]decan-8-yl)-1-oxobutan-2-yl)-5-(trifluoromethyl)benzamide] reads no less than 1000 nM; that for `CO[C@@H](C)[C@@H](NC(=O)c1cccc(C)c1)C(=O)N1CCC2(CC1)C(=O)N(C)CN2c1ccccc1` [Example 134, N-((2R,3S)-3-Methoxy-1-(3-methyl-4-oxo-1-phenyl-1,3,8-triazaspiro[4.5]decan-8-yl)-1-oxobutan-2-yl)-3-methylbenzamide], less than 500 nM; that for `CC(C)[C@@H](NC(=O)c1cc(C(F)(F)F)ccc1F)C(=O)N1CCC2(CC1)C(=O)N(C)C(=O)N2Cc1ncccn1` [Example 111, (R)-2-Fluoro-N-(3-methyl-1-(3-methyl-2,4-dioxo-1-(pyrimidin-2-ylmethyl)-1,3,8-triazaspiro[4.5]decan-8-yl)-1-oxobutan-2-yl)-5-(trifluoromethyl)benzamide], no less than 1000 nM. The result for `CC(C)[C@@H](NC(=O)c1cc(OC(F)(F)F)ccc1F)C(=O)N1CCC2(CC1)C(=O)N(C)C(=O)N2c1ccc2[nH]ncc2c1` [Example 62, (R)—N-(1-(1-(1H-Indazol-5-yl)-3-methyl-2,4-dioxo-1,3,8-triazaspiro[4.5]decan-8-yl)-3-methyl-1-oxobutan-2-yl)-2-fluoro-5-(trifluoromethoxy)benzamide] reads less than 500 nM. The result for `CC(C)[C@@H](NC(=O)c1cc(C(F)(F)F)ccc1F)C(=O)N1CCC2(CC1)C(=O)N(C)C(=O)N2Cc1ccc(F)cc1` [Example 90, (R)-2-Fluoro-N-(1-(1-(4-fluorobenzyl)-3-methyl-2,4-dioxo-1,3,8-triazaspiro[4.5]decan-8-yl)-3-methyl-1-oxobutan-2-yl)-5-(trifluoromethyl)benzamide] reads less than 500 nM. With `COc1ccc(F)c(C(=O)N[C@@H](C(=O)N2CCC3(CC2)C(=O)N(C)CN3c2ccc(C(=O)O)cc2)C(C)C)c1` [Example 163, (R)-4-(8-(2-(2-Fluoro-5-methoxybenzamido)-3-methylbutanoyl)-3-methyl-4-oxo-1,3,8-triazaspiro[4.5]decan-1-yl)benzoic Acid], the IC50 is less than 500 nM. The result for `CC(C)[C@@H](NC(=O)C12CC3CC(CC(C3)C1)C2)C(=O)N1CCC2(CC1)C(=O)N(C)CN2c1ccc(C(=O)O)cc1` [Example 164, (R)-4-(8-(2-(1-Admantanecarboxamido)-3-methylbutanoyl)-3-methyl-4-oxo-1,3,8-triazaspiro[4.5]decan-1-yl)benzoic Acid] reads no less than 1000 nM; that for `CCc1cc(F)cc(C(=O)N[C@@H](C(=O)N2CCC3(CC2)C(=O)N(C)C(=O)N3c2ccccc2)[C@H](C)OC)c1` [Example 38, 3-Ethyl-5-fluoro-N-((2R,3S)-3-methoxy-1-(3-methyl-2,4-dioxo-1-phenyl-1,3,8-triazaspiro[4.5]decan-8-yl)-1-oxobutan-2-yl)benzamide], no less than 1000 nM; that for `CC(C)[C@@H](NC(=O)c1cc(C(F)(F)F)ccc1F)C(=O)N1CCC2(CC1)C(=O)N(C)C(=O)N2CC1CCOCC1` [Example 79, (R)-2-Fluoro-N-(3-methyl-1-(3-methyl-2,4-dioxo-1-((tetrahydro-2H-pyran-4-yl)methyl)-1,3,8-triazaspiro[4.5]decan-8-yl)-1-oxobutan-2-yl)-5-(trifluoromethyl)benzamide], 500 to 1000 nM. On to `COc1ccc(N2C(=O)N(C)C(=O)C23CCN(C(=O)[C@H](NC(=O)c2cc(C(F)(F)F)ccc2F)C(C)C)CC3)cn1` [Example 25, (R)-2-Fluoro-N-(1-(1-(6-methoxypyridin-3-yl)-3-methyl-2,4-dioxo-1,3,8-triazaspiro[4.5]decan-8-yl)-3-methyl-1-oxobutan-2-yl)-5-(trifluoromethyl)benzamide], for which the IC50 was less than 500 nM.
